Entries after “also recorded” stand apart in the source; their conditions may differ.
Tests used:
[1] = molecular target: T1, MD-2 (Homo sapiens, UniProt Q9Y6Y9); details: prevents association with TLR-4; cited from earlier work
T1 sequence (Q9Y6Y9 19-160): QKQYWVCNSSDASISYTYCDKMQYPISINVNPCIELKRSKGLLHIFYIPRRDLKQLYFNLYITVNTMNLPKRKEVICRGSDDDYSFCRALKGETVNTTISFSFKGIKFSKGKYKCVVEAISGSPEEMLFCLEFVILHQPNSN

[2] = test system: RAW264.7 murine macrophage cells; experiment: TNFα production with TLR agonists in RAW264.7 macrophages, POPG treatment; assay type: cell-based; details: TLR agonist stimulated RAW264.7 cells, after 24 h of POPG treatment, FIG. 1
Excerpt: (§1) The Journal of Biological Chemistry 294, 4282 […]; Numata, M. & Voelker, D. R. Anti-inflammatory and anti-viral actions of anionic pulmonary surfactant phospholipids. Biochimica et Biophysica Acta (BBA)—Molecular and CEll Biology of Lipids 1867, 159139 (2022) Mueller, M., Brandenburg, K., Dedrick, R., Schromm, A. B. & Seydel, U. Phospholipids Inhibit Lipopolysaccharide (LPS)-Induced Cell Activation: A Role for LPS-Binding Protein. The Journal of Immunology 174, 1091-1096 (2005); K, K. et al. Anionic pulmonary surfactact phospholipids inhibit inflammatory response from alveolar macrophages and U937 cells by binding the lipopolysaccharide-interacting proteins CD14 and MD-2. J Biol Chem 284, 25488-25500 (2009)]. MD-2 and CD14 are molecular components that are responsible for facilitating the downstream intracellular signaling of TLR4 mediated inflammation. POPG binding to MD-2 and CD-14 will disrupt the downstream TLR signaling and prevent the inflammatory response [Berger, M. de Boer, J. D, van der Poll, T., Sterk, P. J. & van der Zee, J. S. Local coagulation activation following bronchial instillation of house dust mite allergen (HDM) and HDM/Lipopolysaccharide (LPS) in mild asthmatics. European Respiratory Journal 40. (2012)].

[3] = test system: IL8; experiment: Suppression of inflammation mediated by IL8 (data not shown)
Excerpt: as §1

[4] = molecular target: T2, CD14 (Homo sapiens, UniProt P08571); details: prevents association with TLR-4; cited from earlier work
T2 sequence (P08571 20-345): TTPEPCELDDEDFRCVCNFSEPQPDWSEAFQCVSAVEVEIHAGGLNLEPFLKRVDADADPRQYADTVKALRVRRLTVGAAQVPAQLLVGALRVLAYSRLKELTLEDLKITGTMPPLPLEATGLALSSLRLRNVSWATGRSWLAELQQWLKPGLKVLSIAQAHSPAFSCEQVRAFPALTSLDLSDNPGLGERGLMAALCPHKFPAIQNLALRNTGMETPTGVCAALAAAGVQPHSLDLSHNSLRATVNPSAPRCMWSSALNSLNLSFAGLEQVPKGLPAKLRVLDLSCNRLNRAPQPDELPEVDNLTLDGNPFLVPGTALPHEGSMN

CCCCCCCC/C=C\CCCCCCCC(=O)O[C@H](COC(=O)CCCCCCCCCCCCCCC)COP(=O)(O)OCC(O)CO (stereo partly shown) [POPG, palmitoyloleoylphosphatidylglycerol]
binding to MD-2 [1]: preferentially bind | TNFα production [2]: reduces TNFα production; also recorded: suppression of inflammation mediated by TNFα | suppression of inflammation mediated by IL8 [3]: suppression of inflammation | binding to CD14 [4]: preferentially bind
